In ChEMBL document CHEMBL3885861, “Open TG-GATES”:
Structures can show the parent of a compound that is named as a salt.

Species on record: Rattus norvegicus
Test: Open TG-GATES - Regimen: Single
Assay type: toxicity, organism-based, Sprague-Dawley
Parameters: regimen Single, gender Male, age 6 weeks
Settings: in vivo, ip, route intraperitoneal injection; for APTT / Bas / Eos / Fbg / Hb / Ht / Lym / MCH / MCHC / MCV / Mono / Neu / PT / Plat / RBC / Ret / WBC: tissue Blood; for KIDNEY_L / KIDNEY_R / KIDNEY_TOTAL: tissue Kidney; for LIVER: tissue Liver; for A/G / ALP / ALT / AST / BUN / CRE / Ca / Cl / DBIL / GLC / IP / K / LDH / Na / PL / RALB / TBIL / TC / TG / TP / gamma-GTP: tissue Plasma
[1] = 240 mg/kg, 3 h, dose level Middle
[2] = 240 mg/kg, 6 h, dose level Middle
[3] = 240 mg/kg, 9 h, dose level Middle
[4] = 240 mg/kg, 24 h, dose level Middle
[5] = 800 mg/kg, 3 h, dose level High
[6] = 800 mg/kg, 6 h, dose level High
[7] = 800 mg/kg, 9 h, dose level High
[8] = 800 mg/kg, 24 h, dose level High

CCOC(=O)/C=C\C(=O)OCC [DIETHYL MALEATE]
TERMINAL_BW [1]: 196.7 g
APTT [1]: 16 s
Bas [1]: 0%
Eos [1]: 1%
Fbg [1]: 206.2 mg/dL
Hb [1]: 13.4 g/dL
Ht [1]: 40.3%
Lym [1]: 72%
MCH [1]: 21.3 pg
MCHC [1]: 33.3%
MCV [1]: 63.8 fL
Mono [1]: 5.6%
Neu [1]: 21.6%
PT [1]: 12.4 s
Plat [1]: 124.8 x10_4/uL
RBC [1]: 631.8 x10_4/ul
Ret [1]: 9.7%
WBC [1]: 90.3 x10_2/uL
KIDNEY_L [1]: 0.9 g
KIDNEY_R [1]: 0.9 g
KIDNEY_TOTAL [1]: 1.8 g
LIVER [1]: 8.5 g
A/G [1]: 2.1
ALP [1]: 700.6 IU/L
ALT [1]: 35.8 IU/L
AST [1]: 80.6 IU/L
BUN [1]: 17 mg/dL
CRE [1]: 0.5 mg/dL
Ca [1]: 10.9 mg/dL
Cl [1]: 105.4 meq/L
DBIL [1]: 0.02 mg/dL
GLC [1]: 191.8 mg/dL
IP [1]: 10.9 mg/dL
K [1]: 5.2 meq/L
LDH [1]: 147 IU/L
Na [1]: 138.4 meq/L
PL [1]: 126 mg/dL
RALB [1]: 3.6 g/dL
TBIL [1]: 0.4 mg/dL
TC [1]: 71.8 mg/dL
TG [1]: 30.4 mg/dL
TP [1]: 5.3 g/dL
gamma-GTP [1]: 1.2 IU/L
TERMINAL_BW [2]: 199.7 g
APTT [2]: 16.1 s
Bas [2]: 0%
Eos [2]: 0.8%
Fbg [2]: 210.2 mg/dL
Hb [2]: 13 g/dL
Ht [2]: 38.9%
Lym [2]: 71.2%
MCH [2]: 22 pg
MCHC [2]: 33.3%
MCV [2]: 66 fL
Mono [2]: 6.8%
Neu [2]: 21.4%
PT [2]: 12.2 s
Plat [2]: 121.8 x10_4/uL
RBC [2]: 589.4 x10_4/ul
Ret [2]: 10.6%
WBC [2]: 107.7 x10_2/uL
KIDNEY_L [2]: 0.9 g
KIDNEY_R [2]: 0.9 g
KIDNEY_TOTAL [2]: 1.9 g
LIVER [2]: 8.6 g
A/G [2]: 1.9
ALP [2]: 729.6 IU/L
ALT [2]: 35 IU/L
AST [2]: 69.8 IU/L
BUN [2]: 14.8 mg/dL
CRE [2]: 0.5 mg/dL
Ca [2]: 10.7 mg/dL
Cl [2]: 106.6 meq/L
DBIL [2]: 0.004 mg/dL
GLC [2]: 192.6 mg/dL
IP [2]: 9.8 mg/dL
K [2]: 5 meq/L
LDH [2]: 112.8 IU/L
Na [2]: 139.2 meq/L
PL [2]: 131 mg/dL
RALB [2]: 3.5 g/dL
TBIL [2]: 0.4 mg/dL
TC [2]: 82.8 mg/dL
TG [2]: 39.6 mg/dL
TP [2]: 5.3 g/dL
gamma-GTP [2]: 1.4 IU/L
TERMINAL_BW [3]: 195.9 g
APTT [3]: 17 s
Bas [3]: 0%
Eos [3]: 1%
Fbg [3]: 209 mg/dL
Hb [3]: 13 g/dL
Ht [3]: 38.5%
Lym [3]: 74.8%
MCH [3]: 21.8 pg
MCHC [3]: 33.6%
MCV [3]: 64.7 fL
Mono [3]: 5.4%
Neu [3]: 19%
PT [3]: 12.2 s
Plat [3]: 115.5 x10_4/uL
RBC [3]: 595 x10_4/ul
Ret [3]: 9.6%
WBC [3]: 90.7 x10_2/uL
KIDNEY_L [3]: 0.9 g
KIDNEY_R [3]: 0.9 g
KIDNEY_TOTAL [3]: 1.7 g
LIVER [3]: 7.8 g
A/G [3]: 2.2
ALP [3]: 849.2 IU/L
ALT [3]: 34.6 IU/L
AST [3]: 71.8 IU/L
BUN [3]: 12.2 mg/dL
CRE [3]: 0.4 mg/dL
Ca [3]: 10.7 mg/dL
Cl [3]: 108.2 meq/L
DBIL [3]: 0.016 mg/dL
GLC [3]: 188.4 mg/dL
IP [3]: 9.7 mg/dL
K [3]: 4.7 meq/L
LDH [3]: 77.6 IU/L
Na [3]: 139.4 meq/L
PL [3]: 120.4 mg/dL
RALB [3]: 3.5 g/dL
TBIL [3]: 0.4 mg/dL
TC [3]: 67.6 mg/dL
TG [3]: 33.4 mg/dL
TP [3]: 5.2 g/dL
gamma-GTP [3]: 1.2 IU/L
TERMINAL_BW [4]: 210.6 g
APTT [4]: 15.9 s
Bas [4]: 0%
Eos [4]: 1%
Fbg [4]: 218.4 mg/dL
Hb [4]: 13.5 g/dL
Ht [4]: 40%
Lym [4]: 81.2%
MCH [4]: 21.9 pg
MCHC [4]: 33.6%
MCV [4]: 65 fL
Mono [4]: 4%
Neu [4]: 14%
PT [4]: 11.5 s
Plat [4]: 114.2 x10_4/uL
RBC [4]: 615.6 x10_4/ul
Ret [4]: 9.9%
WBC [4]: 113 x10_2/uL
KIDNEY_L [4]: 0.9 g
KIDNEY_R [4]: 0.9 g
KIDNEY_TOTAL [4]: 1.9 g
LIVER [4]: 10.2 g
A/G [4]: 2.3
ALP [4]: 871.4 IU/L
ALT [4]: 39.8 IU/L
AST [4]: 68.2 IU/L
BUN [4]: 17.6 mg/dL
CRE [4]: 0.5 mg/dL
Ca [4]: 10.8 mg/dL
Cl [4]: 106.2 meq/L
DBIL [4]: 0.02 mg/dL
GLC [4]: 198 mg/dL
IP [4]: 8.2 mg/dL
K [4]: 5.2 meq/L
LDH [4]: 125.2 IU/L
Na [4]: 139 meq/L
PL [4]: 145.4 mg/dL
RALB [4]: 3.8 g/dL
TBIL [4]: 0.4 mg/dL
TC [4]: 78 mg/dL
TG [4]: 99.2 mg/dL
TP [4]: 5.5 g/dL
gamma-GTP [4]: 1.8 IU/L
TERMINAL_BW [5]: 200.3 g
APTT [5]: 17 s
Bas [5]: 0%
Eos [5]: 1.4%
Fbg [5]: 195.6 mg/dL
Hb [5]: 14.1 g/dL
Ht [5]: 42.3%
Lym [5]: 62.4%
MCH [5]: 21.3 pg
MCHC [5]: 33.4%
MCV [5]: 63.9 fL
Mono [5]: 7.8%
Neu [5]: 28.4%
PT [5]: 13.2 s
Plat [5]: 123.8 x10_4/uL
RBC [5]: 662.6 x10_4/ul
Ret [5]: 9.9%
WBC [5]: 59.8 x10_2/uL
KIDNEY_L [5]: 0.9 g
KIDNEY_R [5]: 0.9 g
KIDNEY_TOTAL [5]: 1.8 g
LIVER [5]: 7.9 g
A/G [5]: 1.7
ALP [5]: 764.4 IU/L
ALT [5]: 48.8 IU/L
AST [5]: 96.2 IU/L
BUN [5]: 19.2 mg/dL
CRE [5]: 0.5 mg/dL
Ca [5]: 10.7 mg/dL
Cl [5]: 105.2 meq/L
DBIL [5]: 0.01 mg/dL
GLC [5]: 218.6 mg/dL
IP [5]: 10.8 mg/dL
K [5]: 5.2 meq/L
LDH [5]: 209.4 IU/L
Na [5]: 136 meq/L
PL [5]: 101.8 mg/dL
RALB [5]: 3.5 g/dL
TBIL [5]: 0.5 mg/dL
TC [5]: 59.4 mg/dL
TG [5]: 20.2 mg/dL
TP [5]: 5.5 g/dL
gamma-GTP [5]: 1 IU/L
TERMINAL_BW [6]: 195.6 g
APTT [6]: 16.8 s
Bas [6]: 0%
Eos [6]: 0.8%
Fbg [6]: 206.2 mg/dL
Hb [6]: 14.2 g/dL
Ht [6]: 42.4%
Lym [6]: 71.8%
MCH [6]: 22.1 pg
MCHC [6]: 33.5%
MCV [6]: 65.9 fL
Mono [6]: 8.6%
Neu [6]: 18.8%
PT [6]: 12.2 s
Plat [6]: 126 x10_4/uL
RBC [6]: 644.2 x10_4/ul
Ret [6]: 10.4%
WBC [6]: 78.9 x10_2/uL
KIDNEY_L [6]: 0.9 g
KIDNEY_R [6]: 0.9 g
KIDNEY_TOTAL [6]: 1.8 g
LIVER [6]: 7.6 g
A/G [6]: 2
ALP [6]: 784.8 IU/L
ALT [6]: 53.2 IU/L
AST [6]: 101 IU/L
BUN [6]: 22 mg/dL
CRE [6]: 0.5 mg/dL
Ca [6]: 10.9 mg/dL
Cl [6]: 105.6 meq/L
DBIL [6]: 0.012 mg/dL
GLC [6]: 204 mg/dL
IP [6]: 10.2 mg/dL
K [6]: 5.4 meq/L
LDH [6]: 205 IU/L
Na [6]: 136.2 meq/L
PL [6]: 124.6 mg/dL
RALB [6]: 3.7 g/dL
TBIL [6]: 0.5 mg/dL
TC [6]: 77.6 mg/dL
TG [6]: 28.2 mg/dL
TP [6]: 5.6 g/dL
gamma-GTP [6]: 1 IU/L
TERMINAL_BW [7]: 191 g
APTT [7]: 16.8 s
Bas [7]: 0%
Eos [7]: 0.8%
Fbg [7]: 190.4 mg/dL
Hb [7]: 13.7 g/dL
Ht [7]: 40.9%
Lym [7]: 63.6%
MCH [7]: 21.5 pg
MCHC [7]: 33.5%
MCV [7]: 64 fL
Mono [7]: 8.6%
Neu [7]: 27.2%
PT [7]: 12.4 s
Plat [7]: 126 x10_4/uL
RBC [7]: 638 x10_4/ul
Ret [7]: 8.8%
WBC [7]: 90.6 x10_2/uL
KIDNEY_L [7]: 0.9 g
KIDNEY_R [7]: 0.9 g
KIDNEY_TOTAL [7]: 1.8 g
LIVER [7]: 7.1 g
A/G [7]: 2.3
ALP [7]: 702.8 IU/L
ALT [7]: 38.6 IU/L
AST [7]: 101.8 IU/L
BUN [7]: 19.2 mg/dL
CRE [7]: 0.4 mg/dL
Ca [7]: 10.4 mg/dL
Cl [7]: 106 meq/L
DBIL [7]: 0 mg/dL
GLC [7]: 195 mg/dL
IP [7]: 9.5 mg/dL
K [7]: 4.9 meq/L
LDH [7]: 134.8 IU/L
Na [7]: 137 meq/L
PL [7]: 115.6 mg/dL
RALB [7]: 3.6 g/dL
TBIL [7]: 0.5 mg/dL
TC [7]: 71.2 mg/dL
TG [7]: 15 mg/dL
TP [7]: 5.2 g/dL
gamma-GTP [7]: 2 IU/L
TERMINAL_BW [8]: 198.4 g
APTT [8]: 15.2 s
Bas [8]: 0%
Eos [8]: 0.8%
Fbg [8]: 183 mg/dL
Hb [8]: 13.2 g/dL
Ht [8]: 39.6%
Lym [8]: 79.2%
MCH [8]: 21.7 pg
MCHC [8]: 33.4%
MCV [8]: 65 fL
Mono [8]: 5.2%
Neu [8]: 15%
PT [8]: 11.7 s
Plat [8]: 122 x10_4/uL
RBC [8]: 609.6 x10_4/ul
Ret [8]: 8.5%
WBC [8]: 126.8 x10_2/uL
KIDNEY_L [8]: 0.9 g
KIDNEY_R [8]: 0.9 g
KIDNEY_TOTAL [8]: 1.8 g
LIVER [8]: 8.9 g
A/G [8]: 2.3
ALP [8]: 756.4 IU/L
ALT [8]: 34.8 IU/L
AST [8]: 67.6 IU/L
BUN [8]: 18 mg/dL
CRE [8]: 0.4 mg/dL
Ca [8]: 10.5 mg/dL
Cl [8]: 106.4 meq/L
DBIL [8]: 0.022 mg/dL
GLC [8]: 189.2 mg/dL
IP [8]: 7.2 mg/dL
K [8]: 5.2 meq/L
LDH [8]: 123 IU/L
Na [8]: 138.6 meq/L
PL [8]: 135.8 mg/dL
RALB [8]: 3.7 g/dL
TBIL [8]: 0.4 mg/dL
TC [8]: 69.4 mg/dL
TG [8]: 98 mg/dL
TP [8]: 5.3 g/dL
gamma-GTP [8]: 2 IU/L
